Laboratory results: ChEMBL document CHEMBL1201861, “Genomics of Drug Sensitity in Cancer screening data, Wellcome Trust Sanger Institute”

Columns and labels:
[1] = test system: TUR; assay: cells; type: functional, cell-based; settings: Homo sapiens;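 also: growth inhibition of human TUR cells, read out with a cell viability assay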
Description: SANGER: Inhibition of human TUR cell growth in a cell viability assay.

[2] = test system: SK-CO-1; assay: cells; type: functional, cell-based; settings: Homo sapiens;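 also: growth inhibition of SK-CO-1 cells, determined by a viability readout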
Description: SANGER: Inhibition of human SK-CO-1 cell growth in a cell viability assay.

[3] = test system: NCI-H1618; assay: cells; type: functional, cell-based; settings: Homo sapiens;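 also: growth inhibition of human NCI-H1618 cells, measured by a cell viability assay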
Description: SANGER: Inhibition of human NCI-H1618 cell growth in a cell viability assay.

[4] = test system: NCI-H2196; assay: cells; type: functional, cell-based; settings: Homo sapiens;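 also: cell viability assay used as the readout of growth inhibition in NCI-H2196 cells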
Description: SANGER: Inhibition of human NCI-H2196 cell growth in a cell viability assay.

[5] = test system: MFE-296; assay: SANGER: Inhibition of human MFE-296 cell growth in a cell viability assay.; type: functional, cell-based
[6] = test system: NCI-H838; assay: cells; type: functional, cell-based; settings: Homo sapiens;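 also: growth inhibition of human NCI-H838 cells, read out by a cell viability assay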
Description: SANGER: Inhibition of human NCI-H838 cell growth in a cell viability assay.

[7] = test system: MDA-MB-134-VI; assay: cells; type: functional, cell-based; settings: Homo sapiens
Description: SANGER: Inhibition of human MDA-MB-134-VI cell growth in a cell viability assay.

[8] = test system: NCI-H1417; assay: cells; type: functional, cell-based; settings: Homo sapiens;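 also: human NCI-H1417 cells, growth inhibition determined with a cell viability readout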
Description: SANGER: Inhibition of human NCI-H1417 cell growth in a cell viability assay.

[9] = test system: PLC-PRF-5; assay: cells; type: functional, cell-based; settings: Homo sapiens;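 also: growth inhibition of human PLC-PRF-5 cells, read out with a viability assay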
Description: SANGER: Inhibition of human PLC-PRF-5 cell growth in a cell viability assay.

[10] = test system: DV-90; assay: cells; type: functional, cell-based; settings: Homo sapiens;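 also: Read-out is a viability assay, with IC50 reflecting the drop in DV-90 cell growth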
Description: SANGER: Inhibition of human DV-90 cell growth in a cell viability assay.

[11] = test system: RT-4; assay: SANGER: Inhibition of human RT4 cell growth in a cell viability assay.; type: functional, cell-based; settings: Homo sapiens, RT-4
[12] = test system: BL-41; assay: cells; type: functional, cell-based; settings: Homo sapiens;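 also: growth inhibition of human BL-41 cells, read out with a cell viability assay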
Description: SANGER: Inhibition of human BL-41 cell growth in a cell viability assay.

[13] = test system: TT; assay: cells; type: functional, cell-based; settings: Homo sapiens
Description: SANGER: Inhibition of human TT cell growth in a cell viability assay.

[14] = test system: RPMI 8402; assay: SANGER: Inhibition of human RPMI-8402 cell growth in a cell viability assay.; type: functional, cell-based
[15] = test system: NCI-H1522; assay: cells; type: functional, cell-based; settings: Homo sapiens;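 also: growth inhibition of NCI-H1522 cells, read out with a cell viability assay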
Description: SANGER: Inhibition of human NCI-H1522 cell growth in a cell viability assay.

[16] = test system: NCI-H1734; assay: cells; type: functional, cell-based; settings: Homo sapiens;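 also: growth inhibition of human NCI-H1734 cells, read out with a cell viability assay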
Description: SANGER: Inhibition of human NCI-H1734 cell growth in a cell viability assay.

[17] = test system: L-540; assay: cells; type: functional, cell-based; settings: Homo sapiens;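 also: growth inhibition of the human L-540 cell line, read out with a viability assay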
Description: SANGER: Inhibition of human L-540 cell growth in a cell viability assay.

[18] = test system: NCI-H2141; assay: cells; type: functional, cell-based; settings: Homo sapiens;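 also: growth inhibition of human NCI-H2141 cells, read out with a cell viability assay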
Description: SANGER: Inhibition of human NCI-H2141 cell growth in a cell viability assay.

[19] = test system: LB647-SCLC; assay: cells; type: functional, cell-based; settings: Homo sapiens;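 also: cell growth inhibition, read out by a viability assay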
Description: SANGER: Inhibition of human LB647-SCLC cell growth in a cell viability assay.

[20] = test system: MRK-nu-1; assay: cells; type: functional, cell-based; settings: Homo sapiens;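 also: cell viability assay measuring growth suppression of human MRK-nu-1 cells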
Description: SANGER: Inhibition of human MRK-nu-1 cell growth in a cell viability assay.

[21] = test system: HCC1599; assay: cells; type: functional, cell-based; settings: Homo sapiens;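 also: growth inhibition of HCC1599 cells, read out in a cell viability assay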
Description: SANGER: Inhibition of human HCC1599 cell growth in a cell viability assay.

[22] = test system: Daudi; assay: cells; type: functional, cell-based; settings: Homo sapiens;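 also: growth inhibition of Daudi cells, read out by a viability assay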
Description: SANGER: Inhibition of human Daudi cell growth in a cell viability assay.

[23] = test system: SR; assay: cells; type: functional, cell-based; settings: Homo sapiens
Description: SANGER: Inhibition of human SR cell growth in a cell viability assay.

[24] = test system: ECC4; assay: cells; type: functional, cell-based; settings: Homo sapiens;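 also: growth inhibition of ECC4 cells, read out with a cell viability assay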
Description: SANGER: Inhibition of human ECC4 cell growth in a cell viability assay.

[25] = test system: MES-SA; assay: cells; type: functional, cell-based, Homo sapiens; settings: Homo sapiens, MES-SA;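 also: growth inhibition of human MES-SA cells, read out with a cell viability assay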
Description: SANGER: Inhibition of human MES-SA cell growth in a cell viability assay.

[26] = test system: NB1; assay: cells; type: functional, cell-based; settings: Homo sapiens;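 also: reduction of NB1 cell proliferation, read out with a viability assay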
Description: SANGER: Inhibition of human NB1 cell growth in a cell viability assay.

[27] = test system: SNU-475; assay: cells; type: functional, cell-based; settings: Homo sapiens
Description: SANGER: Inhibition of human SNU-475 cell growth in a cell viability assay.

[28] = test system: HCC1143; assay: cells; type: functional, cell-based; settings: Homo sapiens;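 also: growth inhibition of human HCC1143 cells, read out with a cell viability assay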
Description: SANGER: Inhibition of human HCC1143 cell growth in a cell viability assay.

[29] = test system: CCF-STTG1; assay: cells; type: functional, cell-based; settings: Homo sapiens;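 also: growth inhibition of human CCF-STTG1 cells, determined with a cell viability read-out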
Description: SANGER: Inhibition of human CCF-STTG1 cell growth in a cell viability assay.

[30] = test system: P31-FUJ; assay: cells; type: functional, cell-based; settings: Homo sapiens;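 also: growth inhibition of P31-FUJ cells, read out with a viability assay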
Description: SANGER: Inhibition of human P31-FUJ cell growth in a cell viability assay.

[31] = test system: SNU-423; assay: cells; type: functional, cell-based, Homo sapiens; settings: Homo sapiens, SNU-423
Description: SANGER: Inhibition of human SNU-423 cell growth in a cell viability assay.

[32] = test system: COLO 205; assay: cells; type: functional, cell-based; settings: Homo sapiens
Description: SANGER: Inhibition of human COLO-205 cell growth in a cell viability assay.

[33] = test system: EW-7; assay: SANGER: Inhibition of human EW-7 cell growth in a cell viability assay.; type: functional, cell-based; settings: Homo sapiens, EW-7
[34] = test system: EFE-184; assay: cells; type: functional, cell-based; settings: Homo sapiens
Description: SANGER: Inhibition of human EFE-184 cell growth in a cell viability assay.

[35] = test system: KARPAS-422; assay: cells; type: functional, cell-based; settings: Homo sapiens
Description: SANGER: Inhibition of human KARPAS-422 cell growth in a cell viability assay.

[36] = test system: WSU-NHL; assay: cells; type: functional, cell-based; settings: Homo sapiens;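 also: growth inhibition of human WSU-NHL cells, read out with a cell viability assay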
Description: SANGER: Inhibition of human WSU-NHL cell growth in a cell viability assay.

[37] = test system: NCI-H1963; assay: cells; type: functional, cell-based; settings: Homo sapiens
Description: SANGER: Inhibition of human NCI-H1963 cell growth in a cell viability assay.

[38] = test system: MC-CAR; assay: cells; type: functional, cell-based; settings: Homo sapiens;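 also: growth inhibition of the human MC-CAR cell line, read out by a cell viability assay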
Description: SANGER: Inhibition of human MC-CAR cell growth in a cell viability assay.

[39] = test system: NCI-H748; assay: cells; type: functional, cell-based; settings: Homo sapiens;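 also: growth inhibition of NCI-H748 cells, measured by a cell viability assay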
Description: SANGER: Inhibition of human NCI-H748 cell growth in a cell viability assay.

[40] = test system: IPC-298; assay: SANGER: Inhibition of human IPC-298 cell growth in a cell viability assay.; type: functional, cell-based
[41] = test system: Calu-1; assay: SANGER: Inhibition of human Calu-1 cell growth in a cell viability assay.; type: functional, cell-based
[42] = test system: LP-1; assay: cells; type: functional, cell-based; settings: Homo sapiens;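 also: growth inhibition of human LP-1 cells, with the read-out taken from a cell viability assay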
Description: SANGER: Inhibition of human LP-1 cell growth in a cell viability assay.

[43] = test system: MDA-MB-468; assay: cells; type: functional, cell-based; settings: Homo sapiens
Description: SANGER: Inhibition of human MDA-MB-468 cell growth in a cell viability assay.

[44] = test system: LU-165; assay: cells; type: functional, cell-based; settings: Homo sapiens
Description: SANGER: Inhibition of human LU-165 cell growth in a cell viability assay.

[45] = test system: K052; assay: cells; type: functional, cell-based; settings: Homo sapiens;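 also: Read-out from a cell viability assay, IC50 reflecting suppression of K052 cell growth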
Description: SANGER: Inhibition of human K052 cell growth in a cell viability assay.

[46] = test system: BC1 cell line; assay: SANGER: Inhibition of human BC-1 cell growth in a cell viability assay.; type: functional, cell-based
[47] = test system: Caov-3 cell line; assay: cells; type: functional, cell-based; settings: Homo sapiens;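 also: cell growth inhibition read out by a viability assay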
Description: SANGER: Inhibition of human Caov-3 cell growth in a cell viability assay.

[48] = test system: SNG-M; assay: cells; type: functional, cell-based; settings: Homo sapiens
Description: SANGER: Inhibition of human SNG-M cell growth in a cell viability assay.

## Cc1ccc(Nc2nccc(N(C)c3ccc4c(C)n(C)nc4c3)n2)cc1S(N)(=O)=O [PAZOPANIB]
[1]
  IC50: > 8 µM
[2]
  IC50: > 8 µM
[3]
  IC50: > 8 µM
[4]
  IC50: > 8 µM
[5]
  IC50: 0.59 µM
[6]
  IC50: > 8 µM
[7]
  IC50: > 8 µM
[8]
  IC50: > 8 µM
[9]
  IC50: > 8 µM
[10]
  IC50: > 8 µM
[11]
  IC50: > 8 µM
[12]
  IC50: > 8 µM
[13]
  IC50: 5.66 µM
[14]
  IC50: > 8 µM
[15]
  IC50: > 8 µM
[16]
  IC50: > 8 µM
[17]
  IC50: > 8 µM
[18]
  IC50: > 8 µM
[19]
  IC50: > 8 µM
[20]
  IC50: > 8 µM
[21]
  IC50: > 8 µM
[22]
  IC50: 3.66 µM
[23]
  IC50: > 8 µM
[24]
  IC50: > 8 µM
[25]
  IC50: > 8 µM
[26]
  IC50: > 8 µM
[27]
  IC50: > 8 µM
[28]
  IC50: > 8 µM
[29]
  IC50: 1.05 µM
[30]
  IC50: > 8 µM
[31]
  IC50: > 8 µM
[32]
  IC50: > 8 µM
[33]
  IC50: > 8 µM
[34]
  IC50: > 8 µM
[35]
  IC50: > 8 µM
[36]
  IC50: > 8 µM
[37]
  IC50: > 8 µM
[38]
  IC50: > 8 µM
[39]
  IC50: > 8 µM
[40]
  IC50: > 8 µM
[41]
  IC50: > 8 µM
[42]
  IC50: > 8 µM
[43]
  IC50: > 8 µM
[44]
  IC50: > 8 µM
[45]
  IC50: > 8 µM
[46]
  IC50: > 8 µM
[47]
  IC50: > 8 µM
[48]
  IC50: 4.09 µM

## Cn1cncc1[C@@](N)(c1ccc(Cl)cc1)c1ccc2c(c1)c(-c1cccc(Cl)c1)cc(=O)n2C [TIPIFARNIB]
[1]
  IC50: 0.871 µM
[2]
  IC50: 13 µM
[3]
  IC50: > 16 µM
[4]
  IC50: > 16 µM
[5]
  IC50: 1.45 µM
[6]
  IC50: > 16 µM
[7]
  IC50: > 16 µM
[8]
  IC50: > 16 µM
[9]
  IC50: > 16 µM
[10]
  IC50: > 16 µM
[11]
  IC50: 10.9 µM
[12]
  IC50: 2.77 µM
[13]
  IC50: > 16 µM
[14]
  IC50: 1.28 µM
[15]
  IC50: > 16 µM
[16]
  IC50: 14.5 µM
[17]
  IC50: 4.83 µM
[18]
  IC50: > 16 µM
[19]
  IC50: > 16 µM
[20]
  IC50: 1.12 µM
[21]
  IC50: > 16 µM
[22]
  IC50: 2.5 µM
[23]
  IC50: 1.79 µM
[24]
  IC50: > 16 µM
[25]
  IC50: 4.61 µM
[26]
  IC50: > 16 µM
[27]
  IC50: > 16 µM
[28]
  IC50: 13.3 µM
[29]
  IC50: > 16 µM
[30]
  IC50: > 16 µM
[31]
  IC50: 0.705 µM
[32]
  IC50: 4.18 µM
[33]
  IC50: > 16 µM
[34]
  IC50: 4.58 µM
[35]
  IC50: > 16 µM
[36]
  IC50: > 16 µM
[37]
  IC50: > 16 µM
[38]
  IC50: 9.07 µM
[39]
  IC50: > 16 µM
[40]
  IC50: 5.82 µM
[41]
  IC50: 0.181 µM
[42]
  IC50: > 16 µM
[43]
  IC50: > 16 µM
[44]
  IC50: > 16 µM
[45]
  IC50: 15.9 µM
[46]
  IC50: 0.13 µM
[47]
  IC50: > 16 µM
[48]
  IC50: 0.204 µM
